{
  "source": "patent US12370170B2",
  "about": "“Composition comprising naphthoquinone-based compound as active ingredient, for preventing or ameliorating fatigue, cachexia, pain, cognitive decline and hematopoietic stem cell reduction which are side effects related to anticancer drug treatment” (NADIANBIO LTD., priority 2016, dated 2025)",
  "type_in_all_cases": "in vivo, C57BL/6 mice",
  "key": {"[1]": {"experiment": "Muscle loss (body weight, gastrocnemius muscle weight) in cyclophosphamide induced animal model", "conditions": "cyclophosphamide 150 mg/kg+200 mg/kg i.p.; dunnione 20 mg/kg oral daily from 3 days before; 48 hours after", "description": "(§1) In this invention, 11 weeks old C57BL/6 mice were used. All the mice used in the experiments of the invention were raised in an aseptic animal room at the temperature of 22˜26 L with the humidity of 55˜60%. The mice were allowed to take general solid feed (SAMTACO Co., Ltd., Korea) and water freely. The mice were adapted for 1 week before the experiment. All the experiments were performed after obtaining approval from the clinical trial management committee in accordance with the laboratory animal care and ethics regulations of Wonkwang University. The mouse animal model of the present invention was treated with different anticancer drugs. Particularly, one kind of anticancer drug was administered intraperitoneally one time or more, or several kinds of anticancer drugs were administered once or more times or at different concentrations, leading to the establishment of the animal model of the invention. […]\nIn the cyclophosphamide (150 mg/kg+200 mg/kg) induced animal model prepared by the same manner as described in Example 9, the changes of body weight and gastrocnemius muscle weight were measured after the drug treatment in order to investigate the regulatory effect of dunnione on muscle loss."}, "orexin": {"test_system": "orexin", "experiment": "Orexin protein in hypothalamus by ELISA, 4×ACP animal model", "conditions": "dunnione 80 mg/kg oral daily from 3 days before, 2 days after ACP", "description": "as §1\nTo analyze orexin protein in the 4×ACP animal model prepared by the same manner as described in Example 8, the hypothalamus of the mouse was extracted, followed by the preparation of a homogenate. Orexin (MyBioSource, MBS2505504) was analyzed by ELISA to investigate the regulatory effect of β-lapachone on orexin."}, "[2]": {"experiment": "Muscle loss (body weight, gastrocnemius muscle weight) in 3×ACP animal model", "conditions": "3×ACP i.p. once; dunnione 20 mg/kg oral daily from 3 days before; 2 and 4 days after ACP", "description": "as §1\nTo investigate the regulatory effect of dunnione on muscle loss in the 3×ACP animal models prepared by the same manner as described in Example 6, the changes of body weight and gastrocnemius muscle weight were measured after the drug treatment."}, "[3]": {"test_system": "MAFbx, MuRF1 and Bnip3 mRNAs", "experiment": "Muscle loss related gene expression in cyclophosphamide induced animal model", "conditions": "cyclophosphamide 350 mg/kg total; dunnione 20 mg/kg oral; vs cyclophosphamide group"}, "TNF-α": {"test_system": "TNF-α", "experiment": "TNF-α expression in femur by immunohistostaining, 4×ACP animal model", "conditions": "dunnione 80 mg/kg oral", "description": "as §1, with “invention. In the adriamycin-induced animal model, the mice were divided into 6 groups as follows: the control group administered with PBS (Control, 5 mice), the group administered intraperitoneally with adriamycin (4 mg/kg/day) 3 times (ADR, 5 mice), the group administered orally with dunnione or β-lapachone from 3 days before the adriamycin treatment daily (20 mg/kg, 5 mice), and the group administered with dunnione or β-lapachone (20 mg/kg, 5 mice).” for “invention.”"}},
  "data": [
    {"smiles": "CC1OC2=C(C(=O)C(=O)c3ccccc32)C1(C)C", "note": "(stereo not shown) [dunnione, 2,3-dihydro-2,3,3-trimethyl naphtho [1,2-b]furan-4,5-dione]", "values": [
      {"measurement": "reduction of gastrocnemius muscle weight and gastrocnemius muscle weight change", "setting": "[1]", "value": "significantly restored"},
      {"measurement": "weight loss (body weight)", "setting": "[1]", "value": "significantly restored"},
      {"measurement": "orexin reduction in the hypothalamus", "setting": "orexin", "value": "recovered significantly almost to the same level of the control group"},
      {"measurement": "reduction of gastrocnemius muscle weight and gastrocnemius muscle weight change", "setting": "[2]", "value": "significantly restored"},
      {"measurement": "weight loss (body weight)", "setting": "[2]", "value": "significantly restored"},
      {"measurement": "expressions of MAFbx, MuRF1 and Bnip3 mRNAs in muscle", "setting": "[3]", "value": "significantly reduced"},
      {"measurement": "up-regulation of TNF-α in the bone (femur)", "setting": "TNF-α", "value": "significantly suppressed"}
    ]}
  ]
}
